Source: ChEMBL document CHEMBL1671782, “Cationic surfactants derived from lysine: effects of their structure and charge type on antimicrobial and hemolytic activities” (J Med Chem, 2011)
Values after ≈ are worked out from the molar mass of the structure shown. Active and inactive are the calls of the source. No cut-off for these calls is given here. Peptide text beside a SMILES is read from it. * marks the point of attachment. Lauroyl = CCCCCCCCCCCC(=O)*

How the values were obtained:
in vitro = conditions: human, erythrocytes
Description: Toxicity in human erythrocytes assessed as hemolytic activity measured after 10 mins shaking

Escherichia coli [1] = assay: microbe, parasite or virus in culture; conditions: ATCC 27325, 24 h
Description: (§1) Antimicrobial activity against Escherichia coli ATCC 27325 assessed as inhibition of visible growth after 24 hrs at pH 7.4

Klebsiella pneumoniae [2] = assay: microbe, parasite or virus in culture; conditions: ATCC 9721, 24 h
Description: Antimicrobial activity against Klebsiella pneumoniae ATCC 9721 assessed as inhibition of visible growth after 24 hrs at pH 7.4

Bacillus subtilis = assay: microbe, parasite or virus in culture; conditions: ATCC 6633, 24 h
Description: Antimicrobial activity against Bacillus subtilis ATCC 6633 assessed as inhibition of visible growth after 24 hrs at pH 7.4

Staphylococcus aureus [3] = assay: microbe, parasite or virus in culture; conditions: ATCC 25178, 24 h
Description: Antimicrobial activity against Staphylococcus aureus ATCC 25178 assessed as inhibition of visible growth after 24 hrs at pH 7.4

[4] = tested on: Staphylococcus epidermidis; assay: microbe, parasite or virus in culture; conditions: ATCC 155-1, 24 h
Description: Antimicrobial activity against Staphylococcus epidermidis ATCC 155-1 assessed as inhibition of visible growth after 24 hrs at pH 7.4

Micrococcus luteus [5] = assay: microbe, parasite or virus in culture; conditions: ATCC 9341, 24 h
Description: Antimicrobial activity against Micrococcus luteus ATCC 9341 assessed as inhibition of visible growth after 24 hrs at pH 7.4

Candida albicans = assay: microbe, parasite or virus in culture; conditions: ATCC 10231, 24 h
Description: Antimicrobial activity against Candida albicans ATCC 10231 assessed as inhibition of visible growth after 24 hrs at pH 7.4

Klebsiella pneumoniae [6] = assay: Antimicrobial activity against Klebsiella pneumoniae ATCC 9721 at 250 ug/ml at pH 7.4; format: functional, organism-based
Pseudomonas aeruginosa = assay: microbe, parasite or virus in culture; conditions: ATCC 9721, 24 h
Description: Antimicrobial activity against Pseudomonas aeruginosa ATCC 9721 assessed as inhibition of visible growth after 24 hrs at pH 7.4

Escherichia coli [7] = conditions: ATCC 27325
Description: as §1

Staphylococcus aureus [8] = assay: Antimicrobial activity against Staphylococcus aureus ATCC 25178 at 250 ug/ml at pH 7.4; format: functional, organism-based
Micrococcus luteus [9] = assay: Antimicrobial activity against Micrococcus luteus ATCC 9341 at 250 ug/ml at pH 7.4; format: functional, organism-based

Description for physchem: Dissociation constant, pKa of the compound

HC50 at 10 min (in vitro)	pKa (physchem)	MIC (Escherichia coli [1])	MIC (Klebsiella pneumoniae [2])	MIC (Bacillus subtilis)	MIC (Staphylococcus aureus [3])	MIC [4]	MIC (Micrococcus luteus [5])	MIC (Candida albicans)	MIC (Pseudomonas aeruginosa)	Compound	Activity (Klebsiella pneumoniae [6])	Activity (Escherichia coli [7])	Activity (Staphylococcus aureus [8])	Activity (Micrococcus luteus [9])
11 µM	–	–	–	16 µM	67 µM	16 µM	67 µM	67 µM	–	CCCCCCCCCCCC(=O)NCCCC[C@@H](C(=O)NCCCCCCNC(=O)[C@H](CCCCNC(=O)CCCCCCCCCCC)[N+](C)(C)C)[N+](C)(C)C	inactive	–	–	–
12 µM	–	–	–	142 µM (≈ 109 µg/mL)	–	142 µM (≈ 109 µg/mL)	142 µM (≈ 109 µg/mL)	285 µM (≈ 218 µg/mL)	142 µM (≈ 109 µg/mL)	CCCCCCCCCCCC(=O)NCCCC[C@H](N)C(=O)NCCCCNCCCNC(=O)[C@@H](N)CCCCNC(=O)CCCCCCCCCCC	inactive	–	inactive	–
116 µM	–	–	–	308 µM (≈ 227 µg/mL)	–	38 µM (≈ 28 µg/mL)	–	–	–	CCCCCCCCCCCC(=O)NCCCC[C@H](N)C(=O)NCCCCCCNC(=O)[C@@H](N)CCCCNC(=O)CCCCCCCCCCC	inactive	–	inactive	inactive
1350 µM	10	218 µM (≈ 109 µg/mL)	218 µM (≈ 109 µg/mL)	28 µM (≈ 14 µg/mL)	54 µM (≈ 26.9 µg/mL)	218 µM (≈ 109 µg/mL)	28 µM (≈ 14 µg/mL)	218 µM (≈ 109 µg/mL)	218 µM (≈ 109 µg/mL)	CCCCCCCCCCCC(=O)N[C@@H](CCCNC(=N)N)C(=O)N[C@@H](CCCCN)C(=O)OC (Lauroyl-Arg-Lys-OMe)	–	–	–	–

Continued, compound first:

Compound	HC50 at 10 min (in vitro)	pKa (physchem)	MIC (Escherichia coli [1])	MIC (Klebsiella pneumoniae [2])	MIC (Bacillus subtilis)	MIC (Staphylococcus aureus [3])	MIC [4]	MIC (Micrococcus luteus [5])	MIC (Candida albicans)	MIC (Pseudomonas aeruginosa)	Activity (Klebsiella pneumoniae [6])	Activity (Escherichia coli [7])	Activity (Staphylococcus aureus [8])	Activity (Micrococcus luteus [9])
CCCCCCCCCCCC(=O)NCCCC[C@H](N)C(=O)OC	391 µM	10	166 µM (≈ 56.9 µg/mL)	331 µM (≈ 113 µg/mL)	331 µM (≈ 113 µg/mL)	331 µM (≈ 113 µg/mL)	166 µM (≈ 56.9 µg/mL)	331 µM (≈ 113 µg/mL)	166 µM (≈ 56.9 µg/mL)	–	–	–	–	–
CCCCCCCCCCCC(=O)N[C@@H](CCCCN)C(=O)OC	199 µM	10	331 µM (≈ 113 µg/mL)	331 µM (≈ 113 µg/mL)	331 µM (≈ 113 µg/mL)	166 µM (≈ 56.9 µg/mL)	83 µM (≈ 28.4 µg/mL)	83 µM (≈ 28.4 µg/mL)	166 µM (≈ 56.9 µg/mL)	331 µM (≈ 113 µg/mL)	–	–	–	–
CCCCCCCCCCCC(=O)N[C@@H](CCCNC(=N)N)C(=O)NCCCC[C@H](N)C(=O)OC	791 µM	10	–	–	218 µM (≈ 109 µg/mL)	436 µM (≈ 217 µg/mL)	436 µM (≈ 217 µg/mL)	436 µM (≈ 217 µg/mL)	436 µM (≈ 217 µg/mL)	–	inactive	–	–	–
CCCCCCCCCCCC(=O)N[C@@H](CCCCN)C(=O)NCCCCCCNC(=O)[C@H](CCCCN)NC(=O)CCCCCCCCCCC	475 µM	–	–	–	308 µM (≈ 227 µg/mL)	154 µM (≈ 114 µg/mL)	77 µM (≈ 56.8 µg/mL)	154 µM (≈ 114 µg/mL)	–	–	inactive	inactive	–	–
